pIC50: −log10 of the molar value. Each block holds one molecule with its values, some of them ahead of it.
Legend:
[1] = biological target: T1, Endoplasmic reticulum aminopeptidase 2 (Homo sapiens, UniProt Q6P179); test: Inhibition of ERAP2 (unknown origin) using R-AMC as substrate
[2] = biological target: T2, Endoplasmic reticulum aminopeptidase 1 (Homo sapiens, UniProt Q9NZ08); test: Inhibition of C-terminal Hexa-histidine-tagged human recombinant ERAP1 expressed in Sf9 cells using L-AMC as substrate incubated for 15 mins by Michaelis-Menten analysis
[3] = biological target: T1, Endoplasmic reticulum aminopeptidase 2; test: Inhibition of C-terminal Hexa-histidine-tagged human recombinant ERAP2 expressed in Sf9 cells using R-AMC as substrate incubated for 15 mins by Michaelis-Menten analysis
Aminopeptidase N = Aminopeptidase N (Homo sapiens, UniProt P15144); test: Inhibition of FLAG-tagged human recombinant Aminopeptidase N
[4] = biological target: T2, Endoplasmic reticulum aminopeptidase 1; test: Inhibition of ERAP1 (unknown origin) using L-AMC as substrate
[5] = Inhibition of C-terminal Hexa-histidine-tagged human recombinant IRAP expressed in Sf9 cells using R-AMC as substrate incubated for 15 mins by Michaelis-Menten analysis
[6] = biological target: T3, Leukotriene A-4 hydrolase (Homo sapiens, UniProt P09960); test: Inhibition of full length human recombinant Leukotriene A-4 hydrolase expressed in baculovirus infected Insect cells; design: species or system Insect cell
T3 sequence (P09960 whole entry): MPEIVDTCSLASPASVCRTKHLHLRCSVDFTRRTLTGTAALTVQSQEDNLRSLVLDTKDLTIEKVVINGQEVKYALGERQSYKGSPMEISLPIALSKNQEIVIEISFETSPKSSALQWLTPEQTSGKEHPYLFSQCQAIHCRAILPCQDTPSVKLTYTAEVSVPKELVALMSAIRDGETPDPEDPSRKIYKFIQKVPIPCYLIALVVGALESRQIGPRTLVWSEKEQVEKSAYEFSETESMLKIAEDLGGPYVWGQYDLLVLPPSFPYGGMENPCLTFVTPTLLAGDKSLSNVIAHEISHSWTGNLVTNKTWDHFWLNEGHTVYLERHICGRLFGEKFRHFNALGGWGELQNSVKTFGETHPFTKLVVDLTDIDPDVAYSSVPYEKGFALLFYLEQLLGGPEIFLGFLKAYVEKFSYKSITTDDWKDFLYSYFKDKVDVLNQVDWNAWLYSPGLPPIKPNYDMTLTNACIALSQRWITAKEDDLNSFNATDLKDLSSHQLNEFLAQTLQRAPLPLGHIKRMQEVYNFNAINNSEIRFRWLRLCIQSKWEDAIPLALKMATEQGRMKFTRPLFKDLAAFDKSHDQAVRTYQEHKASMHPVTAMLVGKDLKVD

Cytosol aminopeptidase = Cytosol aminopeptidase (Homo sapiens, UniProt P28838); test: Inhibition of human recombinant Leucine aminopeptidase 3
Sequence of Cytosol aminopeptidase (P28838 whole entry): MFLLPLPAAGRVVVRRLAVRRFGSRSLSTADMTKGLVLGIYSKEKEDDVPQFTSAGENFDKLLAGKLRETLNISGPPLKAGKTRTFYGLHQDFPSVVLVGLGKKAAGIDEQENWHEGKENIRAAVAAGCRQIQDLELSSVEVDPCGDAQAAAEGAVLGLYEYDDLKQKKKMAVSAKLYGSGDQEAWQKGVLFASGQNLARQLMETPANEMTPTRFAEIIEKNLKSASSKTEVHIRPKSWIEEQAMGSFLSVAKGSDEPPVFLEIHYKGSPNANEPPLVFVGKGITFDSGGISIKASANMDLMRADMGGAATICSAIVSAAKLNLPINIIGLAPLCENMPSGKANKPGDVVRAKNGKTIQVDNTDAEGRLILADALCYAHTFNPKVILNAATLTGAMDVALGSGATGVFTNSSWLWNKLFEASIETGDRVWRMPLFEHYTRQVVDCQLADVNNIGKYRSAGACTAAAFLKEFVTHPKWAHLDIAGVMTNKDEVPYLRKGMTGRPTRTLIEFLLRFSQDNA

T2 sequence (Q9NZ08 whole entry): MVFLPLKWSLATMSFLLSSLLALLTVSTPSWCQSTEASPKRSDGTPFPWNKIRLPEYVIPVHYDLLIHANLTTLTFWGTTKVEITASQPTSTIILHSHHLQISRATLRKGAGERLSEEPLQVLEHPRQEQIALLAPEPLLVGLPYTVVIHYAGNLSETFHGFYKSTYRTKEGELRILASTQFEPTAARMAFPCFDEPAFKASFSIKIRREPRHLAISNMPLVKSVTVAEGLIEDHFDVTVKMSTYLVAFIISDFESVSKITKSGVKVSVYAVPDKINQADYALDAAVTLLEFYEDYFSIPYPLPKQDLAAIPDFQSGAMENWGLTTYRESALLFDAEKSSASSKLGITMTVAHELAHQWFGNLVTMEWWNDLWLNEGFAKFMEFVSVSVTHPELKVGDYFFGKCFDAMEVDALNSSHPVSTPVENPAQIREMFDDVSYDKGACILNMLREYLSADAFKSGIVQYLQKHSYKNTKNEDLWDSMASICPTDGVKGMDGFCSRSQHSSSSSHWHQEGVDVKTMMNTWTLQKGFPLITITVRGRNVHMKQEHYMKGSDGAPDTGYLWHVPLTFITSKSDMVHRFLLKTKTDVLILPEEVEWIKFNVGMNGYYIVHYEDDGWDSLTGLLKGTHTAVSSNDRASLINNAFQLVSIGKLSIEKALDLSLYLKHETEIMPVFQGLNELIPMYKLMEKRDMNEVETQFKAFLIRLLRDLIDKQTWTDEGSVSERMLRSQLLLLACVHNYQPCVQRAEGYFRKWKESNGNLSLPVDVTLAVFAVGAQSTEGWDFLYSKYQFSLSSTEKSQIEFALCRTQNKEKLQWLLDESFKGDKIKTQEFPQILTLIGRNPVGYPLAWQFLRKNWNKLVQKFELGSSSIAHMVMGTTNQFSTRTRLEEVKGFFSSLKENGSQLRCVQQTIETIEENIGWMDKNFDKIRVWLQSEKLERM
T1 sequence (Q6P179 whole entry): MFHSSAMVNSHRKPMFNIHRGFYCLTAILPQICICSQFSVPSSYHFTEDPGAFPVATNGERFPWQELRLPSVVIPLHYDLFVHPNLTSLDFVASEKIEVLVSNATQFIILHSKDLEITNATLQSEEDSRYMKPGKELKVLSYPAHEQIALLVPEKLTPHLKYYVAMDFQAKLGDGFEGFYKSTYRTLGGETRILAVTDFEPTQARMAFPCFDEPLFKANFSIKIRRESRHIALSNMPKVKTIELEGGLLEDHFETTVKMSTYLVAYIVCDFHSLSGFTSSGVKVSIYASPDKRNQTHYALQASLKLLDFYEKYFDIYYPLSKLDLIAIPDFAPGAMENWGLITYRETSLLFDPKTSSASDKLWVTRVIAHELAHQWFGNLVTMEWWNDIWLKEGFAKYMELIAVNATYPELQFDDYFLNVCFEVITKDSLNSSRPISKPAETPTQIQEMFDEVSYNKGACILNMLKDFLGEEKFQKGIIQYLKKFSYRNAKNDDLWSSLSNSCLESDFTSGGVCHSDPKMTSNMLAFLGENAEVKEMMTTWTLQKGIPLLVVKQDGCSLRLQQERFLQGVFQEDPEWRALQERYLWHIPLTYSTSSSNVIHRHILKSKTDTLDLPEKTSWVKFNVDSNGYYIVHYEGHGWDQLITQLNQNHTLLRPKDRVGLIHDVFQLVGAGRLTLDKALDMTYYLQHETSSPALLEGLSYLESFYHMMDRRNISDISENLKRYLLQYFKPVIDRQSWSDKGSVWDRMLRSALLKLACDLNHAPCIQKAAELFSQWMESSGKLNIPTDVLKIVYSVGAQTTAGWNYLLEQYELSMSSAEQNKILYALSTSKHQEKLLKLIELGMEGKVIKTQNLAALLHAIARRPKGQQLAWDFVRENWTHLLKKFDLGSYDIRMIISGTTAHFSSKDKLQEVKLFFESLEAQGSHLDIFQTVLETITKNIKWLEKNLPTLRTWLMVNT
Sequence of Aminopeptidase N (P15144 whole entry): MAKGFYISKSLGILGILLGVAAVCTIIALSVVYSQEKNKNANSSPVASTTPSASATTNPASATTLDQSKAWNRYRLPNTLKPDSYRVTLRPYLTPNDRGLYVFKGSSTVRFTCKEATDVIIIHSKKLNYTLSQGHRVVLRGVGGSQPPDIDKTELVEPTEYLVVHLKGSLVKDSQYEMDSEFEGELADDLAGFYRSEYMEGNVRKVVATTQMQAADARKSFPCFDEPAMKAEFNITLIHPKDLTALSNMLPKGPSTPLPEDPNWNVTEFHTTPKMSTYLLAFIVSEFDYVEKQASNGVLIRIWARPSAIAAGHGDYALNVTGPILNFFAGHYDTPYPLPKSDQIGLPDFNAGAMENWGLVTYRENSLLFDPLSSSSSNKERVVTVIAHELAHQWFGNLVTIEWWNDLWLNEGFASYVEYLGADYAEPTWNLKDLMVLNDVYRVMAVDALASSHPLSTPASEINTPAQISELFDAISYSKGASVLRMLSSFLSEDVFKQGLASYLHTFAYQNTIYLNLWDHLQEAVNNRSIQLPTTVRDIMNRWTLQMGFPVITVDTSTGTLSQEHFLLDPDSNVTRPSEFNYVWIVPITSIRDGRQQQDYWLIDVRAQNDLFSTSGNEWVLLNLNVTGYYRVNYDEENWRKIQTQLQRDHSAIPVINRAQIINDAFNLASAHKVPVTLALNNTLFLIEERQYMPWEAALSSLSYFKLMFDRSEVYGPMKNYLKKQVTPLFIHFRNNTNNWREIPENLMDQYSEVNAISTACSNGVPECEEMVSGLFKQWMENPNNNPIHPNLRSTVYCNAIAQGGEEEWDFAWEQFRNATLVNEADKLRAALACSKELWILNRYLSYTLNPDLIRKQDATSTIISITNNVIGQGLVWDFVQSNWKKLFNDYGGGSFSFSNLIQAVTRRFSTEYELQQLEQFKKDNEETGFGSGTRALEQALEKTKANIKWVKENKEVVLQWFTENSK

pIC50 [1]: 4.57
SMILES: COc1ccc(C(=O)O)cc1S(=O)(=O)Nc1ccc(C(F)(F)F)cc1N1CCCCC1

pIC50 [4]: < 4.00
SMILES: COc1ccc(C[C@@H](C(=O)NO)n2cc(CNS(=O)(=O)c3ccc(-c4ccccc4)s3)nn2)cc1

More lines, now with the values behind:

SMILES: CC(C)C[C@H](N)CS
pIC50 [2]: 6.96 | pIC50 [3]: 6.21 | pIC50 (Aminopeptidase N): 8.10

SMILES: O=C(NO)[C@H](Cc1ccc(Oc2ccccc2)cc1)n1cc(CNS(=O)(=O)c2ccc(-c3ccccn3)s2)nn1
pIC50 [4]: < 4.00

SMILES: O=C(C[C@H](Cc1ccc(O)cc1)n1nncc1CNS(=O)(=O)c1ccc(-c2ccccn2)s1)NO
pIC50 [4]: < 4.00

SMILES: CC(C)C[C@@H](N)[C@H](O)C(=O)N[C@H](C(=O)N[C@H](C(=O)N[C@@H](CC(=O)O)C(=O)O)C(C)C)C(C)C [AMASTATIN]
pIC50 [2]: 4.66 | pIC50 [5]: 4.60

SMILES: CC(C)C[C@@H](C(=O)N[C@H](C(=O)OC1CCCC1)c1ccccc1)[C@H](O)C(=O)NO [TOSEDOSTAT]
pIC50 [2]: 4.74 | pIC50 [3]: 6.11 | pIC50 (Aminopeptidase N): 7.52 | pIC50 [6]: 8.10 | pIC50 (Cytosol aminopeptidase): 8.30

SMILES: CC(C)C[C@H](NC(=O)[C@@H](O)[C@H](N)Cc1ccccc1)C(=O)O [UBENIMEX]
pIC50 [2]: 4.96 | pIC50 [5]: < 4.00

Source: ChEMBL document CHEMBL5500429, “ERAP Inhibitors in Autoimmunity and Immuno-Oncology: Medicinal Chemistry Insights” (J Med Chem, 2024)
